Assay results taken from patent publication US20190330224A1, “ACC INHIBITORS AND USES THEREOF” (Gilead Apollo, LLC, priority 2015, published 2019).
In brackets after ≈: the same amount, converted by molar mass.

Key:
[1] = biological target: Fungal ACC2 (UniProt Q00955); conditions: read-out: Fungal ACC2 (IC50, in vitro ACC2 inhibition)
[2] = tested on: C. albicans ATCC 90028; assay: Anti-Fungal Activity Assay (broth microtiter MIC), C. albicans; assay type: cell-based, Candida albicans; conditions: Candida albicans, ATCC90028, 48 h, 3 replicates; MIC recorded at 48 h; read-out: MIC C. albicans ATCC 90028
Outline: (§1)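 MIC by visual comparison with growth control, read at 48 h (soraphen also at 24 h). Inoculum: colonies from overnight Sabouraud dextrose agar plates at 35° C, suspended in RPMI 1640+MOPS, density from standard curves. Microtiter broth dilution per CLSI M27-A3; compounds from 1 mg/mL DMSO stocks.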

[3] = biological target: Human ACC2 (Homo sapiens, UniProt O00763); assay: In vitro ACC2 inhibition assay (ADP-Glo), human ACC2; assay type: biochemical; conditions: 5 nM ACC2, 20 μM ATP, 20 μM acetyl-CoA
[4] = tested on: C. krusei ATCC 6258; assay: Anti-Fungal Activity Assay (broth microtiter MIC), C. krusei; assay type: cell-based, Candida krusei; conditions: Pichia kudriavzevii, ATCC6258, 48 h, 3 replicates; MIC recorded at 48 h; read-out: MIC C. krusei ATCC 6258
Outline: as §1

[5] = tested on: C. parapsilosis ATCC 22019; assay: Anti-Fungal Activity Assay (broth microtiter MIC), C. parapsilosis; assay type: cell-based, Candida parapsilosis; conditions: Lodderomyces parapsilosis, ATCC22019, 48 h, 3 replicates; MIC recorded at 48 h; read-out: MIC C. parapsilosis ATCC 22019
Outline: as §1

Sequence of Human ACC2 (O00763 whole entry): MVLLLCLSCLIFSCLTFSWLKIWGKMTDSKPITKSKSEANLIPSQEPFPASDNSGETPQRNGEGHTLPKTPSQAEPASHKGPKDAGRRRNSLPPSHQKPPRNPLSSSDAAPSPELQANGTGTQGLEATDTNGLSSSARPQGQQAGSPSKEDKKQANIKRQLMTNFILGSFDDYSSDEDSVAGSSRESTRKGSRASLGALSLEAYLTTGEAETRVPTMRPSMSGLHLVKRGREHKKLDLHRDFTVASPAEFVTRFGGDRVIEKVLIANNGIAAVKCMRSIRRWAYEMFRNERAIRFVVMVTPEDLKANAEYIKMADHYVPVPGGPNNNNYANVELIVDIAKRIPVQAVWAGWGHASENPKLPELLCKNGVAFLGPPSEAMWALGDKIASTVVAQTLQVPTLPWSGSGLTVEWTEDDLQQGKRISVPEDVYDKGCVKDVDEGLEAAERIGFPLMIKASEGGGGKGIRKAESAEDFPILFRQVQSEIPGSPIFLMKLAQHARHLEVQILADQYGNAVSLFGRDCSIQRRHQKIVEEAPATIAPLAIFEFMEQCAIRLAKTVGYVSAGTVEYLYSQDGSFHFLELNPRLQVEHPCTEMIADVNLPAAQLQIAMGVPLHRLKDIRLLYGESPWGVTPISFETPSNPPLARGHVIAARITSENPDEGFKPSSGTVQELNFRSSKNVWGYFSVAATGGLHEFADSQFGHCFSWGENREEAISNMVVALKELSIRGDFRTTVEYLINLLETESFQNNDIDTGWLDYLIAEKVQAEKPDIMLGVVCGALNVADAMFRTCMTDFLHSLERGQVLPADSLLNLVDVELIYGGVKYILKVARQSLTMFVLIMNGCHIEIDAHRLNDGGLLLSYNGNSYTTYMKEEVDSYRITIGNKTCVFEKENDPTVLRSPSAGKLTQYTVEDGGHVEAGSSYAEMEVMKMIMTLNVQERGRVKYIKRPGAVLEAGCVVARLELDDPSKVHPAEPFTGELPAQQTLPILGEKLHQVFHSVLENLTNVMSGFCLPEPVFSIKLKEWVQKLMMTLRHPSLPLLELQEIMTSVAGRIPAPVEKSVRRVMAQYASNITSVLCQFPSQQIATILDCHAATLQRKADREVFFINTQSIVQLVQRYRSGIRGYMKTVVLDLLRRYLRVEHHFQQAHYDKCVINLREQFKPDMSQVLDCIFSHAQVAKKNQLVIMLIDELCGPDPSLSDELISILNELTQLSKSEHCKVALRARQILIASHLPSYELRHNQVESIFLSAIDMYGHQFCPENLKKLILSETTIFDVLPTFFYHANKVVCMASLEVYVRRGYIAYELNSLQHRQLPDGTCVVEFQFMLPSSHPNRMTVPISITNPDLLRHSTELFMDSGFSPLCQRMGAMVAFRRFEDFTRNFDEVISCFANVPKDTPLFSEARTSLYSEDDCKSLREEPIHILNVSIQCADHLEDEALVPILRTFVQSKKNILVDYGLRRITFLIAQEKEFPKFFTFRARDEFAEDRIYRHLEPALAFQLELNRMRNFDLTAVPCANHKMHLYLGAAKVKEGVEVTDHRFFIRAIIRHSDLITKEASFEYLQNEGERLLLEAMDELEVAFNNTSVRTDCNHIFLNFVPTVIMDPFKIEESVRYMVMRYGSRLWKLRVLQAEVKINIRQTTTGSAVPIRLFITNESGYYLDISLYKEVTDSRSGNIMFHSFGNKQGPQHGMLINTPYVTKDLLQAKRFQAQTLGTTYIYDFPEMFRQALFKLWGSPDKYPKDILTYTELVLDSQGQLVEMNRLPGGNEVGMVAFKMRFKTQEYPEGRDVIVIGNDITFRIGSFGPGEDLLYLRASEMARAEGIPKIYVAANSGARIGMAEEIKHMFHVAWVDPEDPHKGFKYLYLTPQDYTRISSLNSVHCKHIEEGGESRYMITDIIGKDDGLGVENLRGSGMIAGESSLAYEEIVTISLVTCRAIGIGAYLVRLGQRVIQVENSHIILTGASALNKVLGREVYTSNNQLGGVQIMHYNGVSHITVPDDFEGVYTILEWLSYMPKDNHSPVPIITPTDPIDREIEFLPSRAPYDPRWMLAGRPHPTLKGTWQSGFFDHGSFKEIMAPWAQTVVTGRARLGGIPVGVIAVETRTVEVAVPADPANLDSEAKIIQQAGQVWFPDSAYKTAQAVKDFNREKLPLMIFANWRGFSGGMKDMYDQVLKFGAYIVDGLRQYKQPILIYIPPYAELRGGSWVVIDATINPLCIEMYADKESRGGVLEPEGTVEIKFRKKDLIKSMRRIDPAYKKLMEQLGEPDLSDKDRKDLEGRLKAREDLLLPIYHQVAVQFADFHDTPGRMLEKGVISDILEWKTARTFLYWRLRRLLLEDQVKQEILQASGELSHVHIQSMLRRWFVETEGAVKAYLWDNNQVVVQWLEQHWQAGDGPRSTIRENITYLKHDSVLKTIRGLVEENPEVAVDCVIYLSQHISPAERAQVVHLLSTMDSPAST
Sequence of Fungal ACC2 (Q00955 whole entry): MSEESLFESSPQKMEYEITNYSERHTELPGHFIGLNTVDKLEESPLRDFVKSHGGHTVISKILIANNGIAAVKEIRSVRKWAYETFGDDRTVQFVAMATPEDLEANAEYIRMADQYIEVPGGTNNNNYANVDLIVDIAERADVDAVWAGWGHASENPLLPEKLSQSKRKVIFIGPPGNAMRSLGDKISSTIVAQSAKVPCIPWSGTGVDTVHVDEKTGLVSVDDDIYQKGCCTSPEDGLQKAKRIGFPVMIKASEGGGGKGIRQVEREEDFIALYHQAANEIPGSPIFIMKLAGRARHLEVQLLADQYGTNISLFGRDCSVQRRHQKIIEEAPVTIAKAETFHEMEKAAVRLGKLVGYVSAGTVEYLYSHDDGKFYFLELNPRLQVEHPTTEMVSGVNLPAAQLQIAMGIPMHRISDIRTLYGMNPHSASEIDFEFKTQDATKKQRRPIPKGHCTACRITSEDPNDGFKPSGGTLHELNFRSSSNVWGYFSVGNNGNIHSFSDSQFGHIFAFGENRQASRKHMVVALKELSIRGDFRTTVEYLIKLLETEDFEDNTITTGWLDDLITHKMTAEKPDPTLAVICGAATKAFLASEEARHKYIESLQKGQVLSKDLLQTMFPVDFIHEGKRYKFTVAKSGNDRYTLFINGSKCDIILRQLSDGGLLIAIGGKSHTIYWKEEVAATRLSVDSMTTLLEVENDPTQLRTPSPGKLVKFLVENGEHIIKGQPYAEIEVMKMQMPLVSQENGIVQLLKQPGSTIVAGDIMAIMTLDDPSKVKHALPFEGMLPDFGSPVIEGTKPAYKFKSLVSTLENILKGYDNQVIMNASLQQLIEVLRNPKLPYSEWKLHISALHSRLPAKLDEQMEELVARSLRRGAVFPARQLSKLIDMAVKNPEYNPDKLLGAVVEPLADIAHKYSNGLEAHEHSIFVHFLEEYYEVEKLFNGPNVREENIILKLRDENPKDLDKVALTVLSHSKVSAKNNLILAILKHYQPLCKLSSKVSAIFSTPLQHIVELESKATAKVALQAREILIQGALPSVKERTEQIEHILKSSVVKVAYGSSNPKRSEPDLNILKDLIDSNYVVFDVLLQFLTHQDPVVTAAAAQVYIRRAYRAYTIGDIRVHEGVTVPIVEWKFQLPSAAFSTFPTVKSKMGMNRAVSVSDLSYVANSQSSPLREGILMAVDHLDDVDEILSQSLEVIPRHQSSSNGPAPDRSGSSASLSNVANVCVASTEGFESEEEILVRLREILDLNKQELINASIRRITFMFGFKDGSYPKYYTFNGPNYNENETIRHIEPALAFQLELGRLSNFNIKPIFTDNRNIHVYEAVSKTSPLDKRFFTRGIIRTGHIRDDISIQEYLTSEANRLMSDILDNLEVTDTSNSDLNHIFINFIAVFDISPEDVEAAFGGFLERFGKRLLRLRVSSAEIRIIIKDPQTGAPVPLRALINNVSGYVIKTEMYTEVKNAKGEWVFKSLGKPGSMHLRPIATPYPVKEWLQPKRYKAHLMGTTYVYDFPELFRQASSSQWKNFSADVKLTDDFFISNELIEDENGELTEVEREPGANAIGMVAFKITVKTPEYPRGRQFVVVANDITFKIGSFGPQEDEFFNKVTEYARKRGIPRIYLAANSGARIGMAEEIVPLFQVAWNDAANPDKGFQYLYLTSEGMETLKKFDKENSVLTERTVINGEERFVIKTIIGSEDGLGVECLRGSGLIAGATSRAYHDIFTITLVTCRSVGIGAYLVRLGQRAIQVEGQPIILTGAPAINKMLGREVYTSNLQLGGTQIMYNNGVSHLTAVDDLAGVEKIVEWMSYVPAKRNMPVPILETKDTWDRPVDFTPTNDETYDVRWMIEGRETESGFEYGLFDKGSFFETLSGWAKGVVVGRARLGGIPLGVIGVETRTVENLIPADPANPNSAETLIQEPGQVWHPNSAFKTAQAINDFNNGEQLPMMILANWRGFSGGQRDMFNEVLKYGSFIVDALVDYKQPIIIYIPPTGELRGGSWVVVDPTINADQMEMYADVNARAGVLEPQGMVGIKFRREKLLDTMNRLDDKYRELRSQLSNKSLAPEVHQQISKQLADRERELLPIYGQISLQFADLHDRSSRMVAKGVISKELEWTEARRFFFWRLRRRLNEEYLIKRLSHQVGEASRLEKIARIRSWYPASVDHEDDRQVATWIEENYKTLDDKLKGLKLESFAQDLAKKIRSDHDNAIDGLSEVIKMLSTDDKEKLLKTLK

| SMILES | IC50 [1] [nM] | MIC [2] [µg/mL] | IC50 [3] [nM] | MIC [4] [µg/mL] | MIC [5] [µg/mL] |
| --- | --- | --- | --- | --- | --- |
| CCN1CCCC(n2c(=O)c3c(C)c(-n4nccn4)sc3n(C[C@H](OCCOC)c3cc(F)ccc3OC)c2=O)C1=O (stereo partly drawn) [Compound I-15, 3-(1-ethyl-2-oxopiperidin-3-yl)-1-((R)-2-(5-fluoro-2-methoxyphenyl)-2-(2-methoxyethoxy)ethyl)-5-1-methyl-6-(2H-1,2,3-triazol-2-yl)thieno[2,3-d]pyrimidine-2,4(1H,3H)-dione] | 10 to 100 | 2.1 to 4 (≈ 3.5 to 6.66 µM) | 10 to 100 | 2.1 to 4 (≈ 3.5 to 6.66 µM) | 2.1 to 4 (≈ 3.5 to 6.66 µM) |
| COCCO[C@@H](Cn1c(=O)n(C2CCCN(C(C)C)C2=O)c(=O)c2c(C)c(-n3nccn3)sc21)c1cc(F)ccc1OC (stereo partly drawn) [Compound I-16, 1-((R)-2-(5-fluoro-2-methoxyphenyl)-2-(2-methoxy-ethoxy)ethyl)-3-(1-isopropyl-2-oxopiperidin-3-yl)-5-methyl-6-(2H-1,2,3-triazol-2-yl)thieno[2,3-d]pyrimidine-2,4(1H,3H)-dione] | 2 to 10 | 2.1 to 4 (≈ 3.42 to 6.51 µM) | 100 to 1000 | 2.1 to 4 (≈ 3.42 to 6.51 µM) | 2.1 to 4 (≈ 3.42 to 6.51 µM) |
| COc1ccc(F)cc1[C@H](Cn1c(=O)n(C2CCCN(C)C2=O)c(=O)c2c(C)c(-n3nccn3)sc21)OCCO (stereo partly drawn) [Compound I-18, 1-((R)-2-(5-fluoro-2-methoxyphenyl)-2-(2-hydroxy-ethoxy)ethyl)-5-methyl-3-(1-methyl-2-oxopiperidin-3-yl)-6-(2H-1,2,3-triazol-2-yl)thieno[2,3-d]pyrimidine-2,4(1H,3H)-dione] | 2 to 10 | 2.1 to 4 (≈ 3.67 to 6.99 µM) | 10 to 100 | 2.1 to 4 (≈ 3.67 to 6.99 µM) | 2.1 to 4 (≈ 3.67 to 6.99 µM) |
| COc1ccc(F)cc1[C@H](Cn1c(=O)n(C2CCCN(C)C2=O)c(=O)c2c(C)c(-n3nccn3)sc21)OC1CCOCC1 (stereo partly drawn) [Compound I-22, 1-((R)-2-(5-fluoro-2-methoxyphenyl)-2-((tetrahydro-2H-pyran-4-yl)oxy)ethyl)-5-methyl-3-(1-methyl-2-oxopiperidin-3-yl)-6-(2H-1,2,3-triazol-2-yl)thieno[2,3-d]pyrimidine-2,4(1H,3H)-dione] | 0.7 to 2 | 0.25 to 1 (≈ 0.408 to 1.63 µM) | 10 to 100 | 0.25 to 1 (≈ 0.408 to 1.63 µM) | 0.25 to 1 (≈ 0.408 to 1.63 µM) |
| CCN1CCCC(n2c(=O)c3c(C)c(-n4nccn4)sc3n(C[C@H](OC3CCOCC3)c3cc(F)ccc3OC)c2=O)C1=O (stereo partly drawn) [Compound I-23, 3-(1-ethyl-2-oxopiperidin-3-yl)-1-((R)-2-(5-fluoro-2-methoxyphenyl)-2-((tetrahydro-2H-pyran-4-yl)oxy)ethyl)-5-methyl-6-(2H-1,2,3-triazol-2-yl)thieno[2,3-d]pyrimidine-2,4(1H,3H)-dione] | 0.7 to 2 | 0.25 to 1 (≈ 0.399 to 1.6 µM) | 2 to 10 | 0.25 to 1 (≈ 0.399 to 1.6 µM) | 0.25 to 1 (≈ 0.399 to 1.6 µM) |
| COc1ccc(F)cc1[C@H](Cn1c(=O)n([C@H]2CCN(C)C2=O)c(=O)c2c(C)c(-n3nccn3)sc21)OC1CCOCC1 [Compound I-35, 1-((R)-2-(5-fluoro-2-methoxyphenyl)-2-((tetrahydro-2H-pyran-4-yl)oxy)ethyl)-5-methyl-3-((S)-1-methyl-2-oxopyrrolidin-3-yl)-6-(2H-1,2,3-triazol-2-yl)thieno[2,3-d]pyrimidine-2,4(1H,3H)-dione] | 0.7 to 2 | 2.1 to 4 (≈ 3.51 to 6.68 µM) | 10 to 100 | 2.1 to 4 (≈ 3.51 to 6.68 µM) | 2.1 to 4 (≈ 3.51 to 6.68 µM) |
| COc1ccc(F)cc1[C@H](Cn1c(=O)n([C@@H]2CCCN(C)C2=O)c(=O)c2c(C)c(-n3nccn3)sc21)OC1CCOCC1 [Compound I-40, 1-((R)-2-(5-fluoro-2-methoxyphenyl)-2-((tetrahydro-2H-pyran-4-yl)oxy)ethyl)-5-methyl-3-((R)-1-methyl-2-oxopiperidin-3-yl)-6-(2H-1,2,3-triazol-2-yl)thieno[2,3-d]pyrimidine-2,4(1H,3H)-dione] | 0.7 to 2 | 1.1 to 2 (≈ 1.8 to 3.26 µM) | 10 to 100 | 1.1 to 2 (≈ 1.8 to 3.26 µM) | 0.25 to 1 (≈ 0.408 to 1.63 µM) |
| COc1ccccc1[C@H](Cn1c(=O)n(C2CCNC2=O)c(=O)c2c(C)c(-c3ncco3)sc21)OCCO (stereo partly drawn) [Compound I-53, 1-((R)-2-(2-hydroxyethoxy)-2-(2-methoxyphenyl)ethyl)-5-methyl-6-(oxazol-2-yl)-3-(2-oxopyrrolidin-3-yl)thieno[2,3-d]pyrimidine-2,4(1H,3H)-dione] | 10 to 100 | 2.1 to 4 (≈ 3.99 to 7.6 µM) | 10 to 100 | 2.1 to 4 (≈ 3.99 to 7.6 µM) | 2.1 to 4 (≈ 3.99 to 7.6 µM) |
| COc1ccccc1[C@H](Cn1c(=O)n(C2CCN(C)C2=O)c(=O)c2c(C)c(-c3ncco3)sc21)OCCO (stereo partly drawn) [Compound I-54, 1-((R)-2-(2-hydroxyethoxy)-2-(2-methoxyphenyl)ethyl)-5-methyl-3-(1-methyl-2-oxopyrrolidin-3-yl)-6-(oxazol-2-yl)thieno[2,3-d]pyrimidine-2,4(1H,3H)-dione] | 2 to 10 | 2.1 to 4 (≈ 3.88 to 7.4 µM) | 10 to 100 | 2.1 to 4 (≈ 3.88 to 7.4 µM) | 2.1 to 4 (≈ 3.88 to 7.4 µM) |
